Measurements reported in ChEMBL document CHEMBL3286192, “Late-Stage C-H Coupling Enables Rapid Identification of HDAC Inhibitors: Synthesis and Evaluation of NCH-31 Analogues” (ACS Med Chem Lett, 2014).
pIC50: −log10 of the molar value. Calls of active or inactive are those of the source. No cut-off for these calls is given here.

Columns and labels:
Histone deacetylase 1 [1] = target: T1, Histone deacetylase 1 (Homo sapiens, UniProt Q13547); details: at 0.1 µM
Histone deacetylase 1 [2] = target: T1, Histone deacetylase 1; test: Inhibition of human HDAC1 by HDAC-Glo assay
[3] = target: T2, Protein deacetylase HDAC6 (Homo sapiens, UniProt Q9UBN7); test: Inhibition of human HDAC6 by HDAC-Glo assay
T2 sequence (Q9UBN7 whole entry): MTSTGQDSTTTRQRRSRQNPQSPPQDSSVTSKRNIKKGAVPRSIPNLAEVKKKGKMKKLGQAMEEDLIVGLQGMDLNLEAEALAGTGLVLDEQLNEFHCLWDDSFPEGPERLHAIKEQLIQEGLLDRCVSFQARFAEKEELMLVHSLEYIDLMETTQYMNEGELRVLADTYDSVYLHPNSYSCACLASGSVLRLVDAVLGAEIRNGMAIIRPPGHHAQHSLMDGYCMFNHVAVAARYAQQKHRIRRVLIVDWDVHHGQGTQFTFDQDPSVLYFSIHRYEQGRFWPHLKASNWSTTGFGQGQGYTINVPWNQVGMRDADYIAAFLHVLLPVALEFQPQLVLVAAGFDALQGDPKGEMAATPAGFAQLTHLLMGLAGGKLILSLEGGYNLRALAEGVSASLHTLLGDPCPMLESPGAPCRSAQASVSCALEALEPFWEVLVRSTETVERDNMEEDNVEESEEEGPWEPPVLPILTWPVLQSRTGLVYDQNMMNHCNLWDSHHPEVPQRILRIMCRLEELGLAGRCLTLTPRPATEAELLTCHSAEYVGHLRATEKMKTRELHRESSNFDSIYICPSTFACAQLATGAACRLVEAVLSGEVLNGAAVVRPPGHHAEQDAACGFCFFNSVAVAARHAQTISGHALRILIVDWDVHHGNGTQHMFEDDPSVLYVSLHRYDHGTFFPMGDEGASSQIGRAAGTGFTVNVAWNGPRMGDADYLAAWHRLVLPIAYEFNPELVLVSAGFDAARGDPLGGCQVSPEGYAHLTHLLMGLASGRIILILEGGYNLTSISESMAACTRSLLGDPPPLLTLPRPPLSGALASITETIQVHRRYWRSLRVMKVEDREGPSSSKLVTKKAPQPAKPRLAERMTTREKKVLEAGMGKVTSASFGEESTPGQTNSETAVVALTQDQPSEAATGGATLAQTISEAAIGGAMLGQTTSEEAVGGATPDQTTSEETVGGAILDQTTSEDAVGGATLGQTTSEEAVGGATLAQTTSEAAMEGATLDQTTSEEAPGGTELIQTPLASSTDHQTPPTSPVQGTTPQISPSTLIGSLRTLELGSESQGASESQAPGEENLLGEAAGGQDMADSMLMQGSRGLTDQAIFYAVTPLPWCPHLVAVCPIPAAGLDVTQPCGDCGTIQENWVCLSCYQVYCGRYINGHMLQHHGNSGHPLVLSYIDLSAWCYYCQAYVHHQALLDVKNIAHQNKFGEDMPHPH

Histone deacetylase 9 [4] = target: T3, Histone deacetylase 9 (Homo sapiens, UniProt Q9UKV0); test: Inhibition of human HDAC9 at 0.1 uM by HDAC-Glo assay
Histone deacetylase 9 [5] = target: T3, Histone deacetylase 9; test: Inhibition of human HDAC9 by HDAC-Glo assay
[6] = target: T4, Protein deacetylase HDAC6 (Homo sapiens) (UniProt Q9UBN7); test: Inhibition of human HDAC6 at 1 uM by HDAC-Glo assay
T4 sequence (whole entry): T2 sequence (Q9UBN7 whole entry)

T1 sequence (Q13547 whole entry): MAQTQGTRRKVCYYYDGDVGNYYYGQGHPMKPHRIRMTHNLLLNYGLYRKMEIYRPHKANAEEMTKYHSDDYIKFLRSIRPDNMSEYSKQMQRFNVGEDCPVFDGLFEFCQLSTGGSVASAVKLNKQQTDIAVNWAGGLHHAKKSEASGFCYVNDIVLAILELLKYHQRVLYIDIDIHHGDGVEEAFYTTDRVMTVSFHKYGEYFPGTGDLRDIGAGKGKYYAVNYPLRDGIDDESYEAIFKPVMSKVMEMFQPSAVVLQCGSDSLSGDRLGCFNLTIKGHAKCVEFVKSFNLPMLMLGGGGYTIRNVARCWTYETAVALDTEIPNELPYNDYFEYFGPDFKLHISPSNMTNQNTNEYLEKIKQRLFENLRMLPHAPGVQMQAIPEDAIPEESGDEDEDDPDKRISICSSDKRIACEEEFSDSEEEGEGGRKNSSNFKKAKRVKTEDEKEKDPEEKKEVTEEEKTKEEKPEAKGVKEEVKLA
T3 sequence (Q9UKV0 whole entry): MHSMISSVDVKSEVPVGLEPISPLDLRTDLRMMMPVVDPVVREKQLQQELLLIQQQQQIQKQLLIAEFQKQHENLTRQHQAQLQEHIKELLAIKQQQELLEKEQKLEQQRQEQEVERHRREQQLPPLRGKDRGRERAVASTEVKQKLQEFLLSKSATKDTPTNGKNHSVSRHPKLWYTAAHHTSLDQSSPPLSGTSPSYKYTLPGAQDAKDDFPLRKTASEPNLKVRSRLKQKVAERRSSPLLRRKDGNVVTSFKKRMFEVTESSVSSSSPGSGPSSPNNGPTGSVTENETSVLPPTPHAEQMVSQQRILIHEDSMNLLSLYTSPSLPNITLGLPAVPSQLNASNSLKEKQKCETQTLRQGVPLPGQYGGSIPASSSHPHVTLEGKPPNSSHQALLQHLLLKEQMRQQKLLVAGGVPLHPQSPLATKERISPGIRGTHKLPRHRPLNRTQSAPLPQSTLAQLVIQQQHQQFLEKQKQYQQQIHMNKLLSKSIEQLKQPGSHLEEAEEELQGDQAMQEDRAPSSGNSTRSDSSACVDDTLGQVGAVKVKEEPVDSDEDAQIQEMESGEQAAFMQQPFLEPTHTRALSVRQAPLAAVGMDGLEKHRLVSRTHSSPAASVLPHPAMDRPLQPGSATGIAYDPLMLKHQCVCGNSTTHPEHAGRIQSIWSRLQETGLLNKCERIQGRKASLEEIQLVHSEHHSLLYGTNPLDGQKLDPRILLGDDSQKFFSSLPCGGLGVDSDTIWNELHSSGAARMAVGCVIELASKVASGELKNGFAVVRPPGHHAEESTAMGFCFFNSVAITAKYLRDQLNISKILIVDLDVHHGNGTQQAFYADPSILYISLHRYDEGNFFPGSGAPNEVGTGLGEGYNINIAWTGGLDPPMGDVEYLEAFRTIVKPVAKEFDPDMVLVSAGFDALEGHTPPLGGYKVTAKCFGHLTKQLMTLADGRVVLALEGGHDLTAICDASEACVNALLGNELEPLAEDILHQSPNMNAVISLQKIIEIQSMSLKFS

inhibition (Histone deacetylase 1 [1]) | pIC50 (Histone deacetylase 1 [2]) | pIC50 [3] | inhibition (Histone deacetylase 9 [4]) | pIC50 (Histone deacetylase 9 [5]) | inhibition [6] [%] | Structure (SMILES)
Active | – | – | – | – | – | COc1cc(OC)cc(-c2csc(NC(=O)CCCCCCS)n2)c1
Active | – | – | – | – | – | CCCCc1ccc(-c2csc(NC(=O)CCCCCCS)n2)cc1
Active | – | – | – | – | – | Cc1cccc(-c2csc(NC(=O)CCCCCCS)n2)c1
Active | – | – | – | – | – | O=C(CCCCCCS)Nc1nc(-c2ccc(OC(F)(F)F)cc2)cs1
Active | 7.30 | 5.21 | Active | 7.21 | – | Cc1ccc(-c2csc(NC(=O)CCCCCCS)n2)cc1F
Active | 7.44 | 6.26 | Active | 7.24 | – | O=C(CCCCCCS)Nc1nc(-c2ccc(F)cc2)cs1
Active | – | – | – | – | – | COc1ccc(-c2csc(NC(=O)CCCCCCS)n2)cc1
Active | – | – | – | – | – | Cc1cc(C)cc(-c2csc(NC(=O)CCCCCCS)n2)c1
inactive | – | – | – | – | – | CN(C(=O)CCCCCCS)c1nc(-c2ccccc2)cs1
Active | – | – | – | – | 70 | COc1cccc(-c2csc(NC(=O)CCCCCCS)n2)c1
Active | – | – | – | – | – | CC(C)(C)c1ccc(-c2csc(NC(=O)CCCCCCS)n2)cc1
Active | 7.24 | – | Active | 7.38 | – | Cc1ccc(-c2csc(NC(=O)CCCCCCS)n2)cc1
Active | – | – | – | – | – | COc1ccc(-c2csc(NC(=O)CCCCCCS)n2)cc1C
Active | – | – | – | – | – | COc1c(C)cc(-c2csc(NC(=O)CCCCCCS)n2)cc1C
Active | 7.31 | 6.82 | Active | 7.11 | 70 | O=C(CCCCCCS)Nc1nc(-c2cccc(F)c2)cs1
Active | – | – | – | – | – | O=C(CCCCCCS)Nc1nc(-c2cccc(Cl)c2)cs1
– | 7.02 | 6.64 | – | 7.09 | – | O=C(CCCCCCS)Nc1nc(-c2ccccc2)cs1
